Source: ChEMBL document CHEMBL5360646, “Optimization of M3 Antagonist-PDE4 Inhibitor (MAPI) Dual Pharmacology Molecules for the Treatment of COPD” (J Med Chem, 2023)

Assays:
[1] = target: 3',5'-cyclic-AMP phosphodiesterase 4B (Homo sapiens, UniProt Q07343); assay: Inhibition of human recombinant PDE4B2 expressed in baculovirus expression system using cAMP as substrate incubated for 2 hrs by HTRF assay
[2] = target: Muscarinic acetylcholine receptor M3 (Homo sapiens, UniProt P20309); assay: Displacement of [3H]N-methylscopolamine chloride from human muscarinic M3 receptor incubated for 2 hrs by radioligand binding assay
Muscarinic acetylcholine receptor M3, sequence (P20309 whole entry): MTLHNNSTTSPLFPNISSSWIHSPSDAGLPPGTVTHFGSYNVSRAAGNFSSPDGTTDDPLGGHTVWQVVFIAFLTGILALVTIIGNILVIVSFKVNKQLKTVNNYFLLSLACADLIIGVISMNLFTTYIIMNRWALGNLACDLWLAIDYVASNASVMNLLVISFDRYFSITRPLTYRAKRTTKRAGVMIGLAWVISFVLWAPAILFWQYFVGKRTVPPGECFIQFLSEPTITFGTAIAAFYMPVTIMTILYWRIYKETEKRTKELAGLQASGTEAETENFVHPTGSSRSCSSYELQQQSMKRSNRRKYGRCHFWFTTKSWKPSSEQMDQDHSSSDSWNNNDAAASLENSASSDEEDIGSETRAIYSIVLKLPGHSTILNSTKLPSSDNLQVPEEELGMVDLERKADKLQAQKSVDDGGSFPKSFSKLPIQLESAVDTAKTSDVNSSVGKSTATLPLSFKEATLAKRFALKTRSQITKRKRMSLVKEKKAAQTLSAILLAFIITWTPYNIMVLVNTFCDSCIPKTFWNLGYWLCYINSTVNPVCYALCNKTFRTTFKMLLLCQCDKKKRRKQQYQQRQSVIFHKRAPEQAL

[3] = tested on: Rattus norvegicus; assay: Anti-bronchospastic activity in carbachol-induced bronchospasm Sprague-Dawley rat model assessed as inhibition of carbachol-induced bronchoconstriction at 30 nmol/kg, IT(Intratracheal) administered 1 hr prior to carbachol challenge; type: functional; parameters: scale not given: the % may be the effect or the level left
[4] = tested on: Rattus norvegicus; assay: Anti-bronchospastic activity in carbachol-induced bronchospasm Sprague-Dawley rat model assessed as inhibition of carbachol-induced bronchoconstriction administered IT(Intratracheal) for 1 hr prior to carbachol challenge; type: functional
[5] = Antiinflammatory activity against LPS-stimulated human PBMC cells assessed reduction in TNFalpha level incubated for 18 hrs by ELISA analysis; type: functional, cell-based; conditions: Homo sapiens, PBMC, 18 h
[6] = tested on: Trachea; assay: Bronchoconstriction activity in Sprague-Dawley rat trachea assessed as inhibition of carbachol-induced tracheal contraction; type: functional, tissue-based
[7] = tested on: Rattus norvegicus; assay: Anti-inflammatory activity against OVA-sensitized Brown-Norway rat airway inflammation model assessed as inhibition of OVA-induced eosinophil influx at 1000 nmol/kg,IT(Intratracheal) pretreated 24 hrs prior to OVA challenge and measured after 48 hrs by automated cell counter analysis; type: functional; parameters: scale not given: the % may be the effect or the level left; conditions: time 72 hrs
[8] = tested on: Rattus norvegicus; assay: Anti-inflammatory activity against OVA-sensitized Brown-Norway rat airway inflammation model assessed as inhibition of OVA-induced eosinophil influx at 100 nmol/kg,IT(Intratracheal) pretreated 2 hrs prior to OVA challenge by automated cell counter analysis; type: functional; parameters: scale not given: the % may be the effect or the level left
[9] = Toxicity in ferret assessed as emetic response at 10 nmol/kg,po and measured for 4 hrs by behavioral analysis; parameters: species or system Mustela putorius furo; conditions: in vivo
[10] = Toxicity in ferret assessed as appearance of nausea-like behavior at 10 nmol/kg, IT(Intratracheal) and measured for 4 hrs by behavioral analysis; parameters: species or system Mustela putorius furo; conditions: in vivo, inhaled_or_intranasal
[11] = Toxicity in ferret assessed as emetic response at 10 nmol/kg, IT(Intratracheal) and measured for 4 hrs by behavioral analysis; parameters: species or system Mustela putorius furo; conditions: in vivo, inhaled_or_intranasal
[12] = Toxicity in ferret assessed as appearance of nausea-like behavior at 10 nmol/kg,po and measured for 4 hrs by behavioral analysis; parameters: species or system Mustela putorius furo; conditions: in vivo
[13] = Metabolic stability in human lung S9 fraction assessed as half life at 1 uM and measured upto 60 mins in presence of NADPH by LC-MS/MS analysis; type: ADME, subcellular; conditions: lung S9 fraction
[14] = Metabolic stability in rat plasma assessed as half life at 5 uM and measured upto 180 mins by HPLC-MS/MS analysis; type: ADME, cell-free
[15] = Metabolic stability in human plasma assessed as half life at 5 uM and measured upto 180 mins by HPLC-MS/MS analysis; type: ADME, cell-free
[16] = Metabolic stability in rat liver microsomes assessed as intrinsic clerance at 1 uM and measured upto 60 mins by HPLC-MS/MS analysis; type: ADME, Microsome; conditions: microsomes, 1 h, 1 µM
[17] = tested on: Rattus norvegicus; assay: Anti-bronchospastic activity in carbachol-induced bronchospasm Sprague-Dawley rat model assessed as inhibition of carbachol-induced bronchoconstriction at 30 nmol/kg, IT(Intratracheal) administered 16 hr prior to carbachol challenge; type: functional; parameters: scale not given: the % may be the effect or the level left
[18] = Metabolic stability in rat lung S9 fraction assessed as half life at 1 uM and measured upto 60 mins in presence of NADPH by LC-MS/MS analysis; type: ADME, subcellular; conditions: lung S9 fraction
[19] = Metabolic stability in human liver microsomes assessed as intrinsic clerance at 1 uM and measured upto 60 mins by HPLC-MS/MS analysis; type: ADME, Microsome; conditions: liver microsomes, read-out: CLH

3',5'-cyclic-AMP phosphodiesterase 4B, sequence (Q07343 whole entry): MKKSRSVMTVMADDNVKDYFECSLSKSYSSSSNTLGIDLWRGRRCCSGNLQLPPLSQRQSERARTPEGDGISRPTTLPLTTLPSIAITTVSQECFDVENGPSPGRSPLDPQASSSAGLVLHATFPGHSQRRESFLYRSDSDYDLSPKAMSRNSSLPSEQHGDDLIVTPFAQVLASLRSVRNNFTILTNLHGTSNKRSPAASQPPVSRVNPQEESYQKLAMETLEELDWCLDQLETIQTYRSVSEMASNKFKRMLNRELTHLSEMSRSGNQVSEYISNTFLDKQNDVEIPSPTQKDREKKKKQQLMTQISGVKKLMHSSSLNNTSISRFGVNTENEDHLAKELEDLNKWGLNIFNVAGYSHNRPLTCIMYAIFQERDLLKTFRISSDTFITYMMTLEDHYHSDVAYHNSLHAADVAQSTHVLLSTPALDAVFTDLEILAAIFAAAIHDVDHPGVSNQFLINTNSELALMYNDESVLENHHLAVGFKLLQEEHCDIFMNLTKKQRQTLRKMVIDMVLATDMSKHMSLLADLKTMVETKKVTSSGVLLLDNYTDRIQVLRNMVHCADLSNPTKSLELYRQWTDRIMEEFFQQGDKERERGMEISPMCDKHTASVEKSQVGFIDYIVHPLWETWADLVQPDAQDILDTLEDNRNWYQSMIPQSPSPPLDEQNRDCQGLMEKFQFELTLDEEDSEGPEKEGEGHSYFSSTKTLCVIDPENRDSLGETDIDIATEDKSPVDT

Structure (SMILES): CN(C)C(=O)c1cccc(S(=O)(=O)N2CCC[C@H]2C(=O)O[C@@H](Cc2c(Cl)c[n+]([O-])cc2Cl)c2ccc(OC(F)F)c(OCC3CC3)c2)c1
- IC50 [1]: 0.0398 nM

Structure (SMILES): COc1ccc([C@H](Cc2c(Cl)c[n+]([O-])cc2Cl)OC(=O)c2ccc(CNC(CO)(C(=O)O[C@H]3CN4CCC3CC4)c3ccccc3)c(OCC3CC3)c2)cc1OC (stereo in doubt; 9s)
- Ki [2]: > 50.1 nM
- IC50 [1]: 0.794 nM

Structure (SMILES): COc1ccc([C@H](Cc2c(Cl)c[n+]([O-])cc2Cl)OC(=O)c2ccc(CNC(CO)(C(=O)O[C@H]3CN4CCC3CC4)c3ccccc3)s2)cc1OCC1CC1 (stereo in doubt; 11f)
- Ki [2]: 0.398 nM
- Activity [3]: 80%
- ED50 ([4]; Rattus norvegicus, Sprague-Dawley, read-out: ED50): 0.0079 µmol/kg
- IC50 [5]: 1.58 nM
- IC50 [1]: 0.794 nM
- pIC50 [6]: 7

Structure (SMILES): CCOc1cc([C@H](Cc2c(Cl)cncc2Cl)OC(=O)c2ccc(CN[C@@](CO)(C(=O)O[C@H]3CN4CCC3CC4)c3ccccc3)s2)ccc1OC
- Ki [2]: 3.16 nM
- IC50 [1]: 7.94 nM

Structure (SMILES): CS(=O)(=O)N1CCC[C@H]1C(=O)O[C@@H](Cc1c(Cl)c[n+]([O-])cc1Cl)c1ccc(OC(F)F)c(OCC2CC2)c1
- IC50 [1]: 0.501 nM

Structure (SMILES): COCC(NCc1ccc(C(=O)O[C@@H](Cc2c(Cl)c[n+]([O-])cc2Cl)c2ccc(OC)c(OC)c2)s1)(C(=O)O[C@H]1CN2CCC1CC2)c1ccccc1 (stereo in doubt; 4s)
- Ki [2]: 5.01 nM
- IC50 [1]: 1.58 nM

Structure (SMILES): C[C@@H]1C[C@H]2[C@@H]3C[C@H](F)C4=CC(=O)C=C[C@]4(C)[C@@]3(F)[C@@H](O)C[C@]2(C)[C@@]1(OC(=O)c1ccco1)C(=O)SCF [FLUTICASONE FUROATE]
- Activity [7]: >100%
- Activity [8]: >100%

Structure (SMILES): CCOc1cc(C(=O)O[C@@H](Cc2c(Cl)c[n+]([O-])cc2Cl)c2ccc(OC)c(OC)c2)ccc1CNC(C(=O)O[C@H]1CN2CCC1CC2)c1ccccc1 (some centres undefined)
- Ki [2]: 1 nM
- IC50 [1]: 7.94 nM

Structure (SMILES): O=C(Nc1c(Cl)cncc1Cl)c1ccc(OC(F)F)c(OCC2CC2)c1 [ROFLUMILAST]
- Activity [9]: Toxic
- Activity [10]: Toxic
- Activity [11]: Toxic
- Activity [12]: Toxic

Structure (SMILES): COc1ccc([C@H](Cc2c(Cl)c[n+]([O-])cc2Cl)OC(=O)c2ccc(CNC(C(=O)O[C@H]3CN4CCC3CC4)c3ccccc3)cc2)cc1OC (some centres undefined)
- Ki [2]: 0.251 nM
- IC50 [1]: 2.51 nM

Structure (SMILES): COCC(NCc1ccc(C(=O)O[C@@H](Cc2c(Cl)c[n+]([O-])cc2Cl)c2ccc(OC)c(OC)c2)s1)(C(=O)O[C@H]1CN2CCC1CC2)c1ccccc1 (stereo in doubt; 4f)
- Ki [2]: 3.16 nM
- IC50 [1]: 1 nM

Structure (SMILES): COc1ccc([C@H](Cc2c(Cl)c[n+]([O-])cc2Cl)OC(=O)c2ccc(CNC(CO)(C(=O)O[C@H]3CN4CCC3CC4)c3ccccc3)s2)cc1OC (stereo in doubt; 3f)
- half-life at 1 µM [13]: 1.32 h
- Ki [2]: 0.631 nM
- half-life at 5 µM [14]: 2.1 h
- half-life at 5 µM [15]: > 4 h
- CLH [16]: 32 µL/min/mg
- Activity [17]: 28%
- Activity [3]: 88%
- ED50 [4]: 0.0029 µmol/kg
- IC50 [5]: 0.501 nM
- IC50 [1]: 0.631 nM
- half-life at 1 µM [18]: 1.37 h
- pIC50 [6]: 7.4
- microsomal CLint at 1 µM [19]: 331 µL/min/mg
